# Data: patent US9765035B2 (priority 2013, dated 2017)
# Target: T1, Human CARM1 (PRMT4) (Homo sapiens, UniProt Q86X55)
# T1 construct: Flag-CARM1-His; made in house; host or cells: HEK 293F cells (BacMam baculovirus)
# T1 sequence (Q86X55 1-585 isoform Q86X55-1): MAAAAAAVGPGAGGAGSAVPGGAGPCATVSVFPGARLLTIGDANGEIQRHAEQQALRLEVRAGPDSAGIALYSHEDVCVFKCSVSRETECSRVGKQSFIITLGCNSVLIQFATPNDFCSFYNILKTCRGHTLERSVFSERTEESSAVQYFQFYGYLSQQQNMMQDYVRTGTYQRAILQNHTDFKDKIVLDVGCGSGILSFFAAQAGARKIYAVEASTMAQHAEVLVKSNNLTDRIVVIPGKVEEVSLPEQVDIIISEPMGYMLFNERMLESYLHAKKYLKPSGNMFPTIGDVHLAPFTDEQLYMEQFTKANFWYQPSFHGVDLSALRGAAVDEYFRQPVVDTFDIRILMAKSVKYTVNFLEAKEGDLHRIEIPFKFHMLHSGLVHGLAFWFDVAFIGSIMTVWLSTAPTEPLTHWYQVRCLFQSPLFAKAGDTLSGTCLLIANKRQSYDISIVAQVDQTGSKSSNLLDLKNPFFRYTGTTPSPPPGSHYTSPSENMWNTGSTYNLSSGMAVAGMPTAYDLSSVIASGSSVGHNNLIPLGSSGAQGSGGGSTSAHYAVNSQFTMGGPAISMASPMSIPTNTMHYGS
# Assay: CARM1 Biochemical Assay
# Description: General Materials. S-adenosylmethionine (SAM), S-adenosylhomocysteine (SAH), bicine, Tween20, dimethylsulfoxide (DMSO), bovine skin gelatin (BSG), sodium butyrate and Tris(2-carboxyethyl)phosphine hydrochloride solution (TCEP) were purchased from Sigma-Aldrich at the highest level of purity possible. ^3H-SAM was purchase from American Radiolabeled Chemicals with a specific activity of 80 Ci/mmol. 384-well streptavidin Flashplates were purchased from PerkinElmer.
# Substrates. Peptide representative of human histone H3 residues 16-30 was synthesized with an N-terminal linker-affinity tag motif and a C-terminal amide cap by 21st Century Biochemicals. The peptide was purified by high-performance liquid chromatography (HPLC) to greater than 95% purity and confirmed by liquid chromatography mass spectrometry (LC-MS). The sequence was Biot-Ahx-[…]-amide and contained a monomethylated arginine at position 26 (SEQ ID NO.: 14).
# Molecular Biology: Human CARM1 (PRMT4) (NM_199141.1) transcript clone was amplified from an HEK 293 cDNA library, incorporating a flanking 5′ sequence encoding a FLAG tag ([…]) (SEQ ID NO.:6) fused directly to Ala 2 of CARM1 and 3′ sequence encoding a hexa His sequence ([…]) (SEQ ID NO.: 15) fused directly to Ser 608. The gene sequence encoding isoform1 containing a deletion of amino acids 539-561 was amplified subsequently and subcloned into pFastBacMam (Viva Biotech).
# Protein Expression. Recombinant baculovirus were generated according to Bac-to-Bac kit instructions (Life Technologies). […] Infections were carried out at 37° C. for 48 hours, harvested by centrifugation, and stored at −80° C. for purification.
# Protein Purification. […] Column was washed with 500 mM NaCl in buffer A and Flag-CARM1-His was eluted with 200 ug/ml FLAG peptide in buffer A. Pooled fractions were dialyzed in 20 mM Tris, 150 mM NaCl, 5% glycerol and 1 mM DTT, pH 7.8. The purity of recovered protein was 94.
# General Procedure for CARM1 Enzyme Assays on Peptide Substrates. The assays were all performed in a buffer consisting of 20 mM Bicine (pH=7.6), 1 mM TCEP, 0.005% BSG, and 0.002% Tween 20, prepared on the day of use. Compounds in 100% DMSO (1 ul) were spotted into a polypropylene 384-well V-bottom plates (Greiner) using a Platemate Plus outfitted with a 384-channel head (Thermo Scientific). DMSO (1 ul) was added to Columns 11, 12, 23, 24, rows A-H for the maximum signal control and 1 ul of SAH, a known product and inhibitor of CARM1, was added to columns 11, 12, 23, 24, rows I-P for the minimum signal control. A cocktail (40 ul) containing the CARM1 enzyme was added by Multidrop Combi (Thermo-Fisher). The compounds were allowed to incubate with CARM1 for 30 min at room temperature, then a cocktail (10 ul) containing ^3H-SAM and peptide was added to initiate the reaction (final volume=51 ul). The final concentrations of the components were as follows: CARM1 was 0.25 nM, ^3H-SAM was 30 nM, peptide was 250 nM, SAH in the minimum signal control wells was 1 mM, and the DMSO concentration was 2%. The assays were stopped by the addition of non-radiolabeled SAM (10 ul) to a final concentration of 300 uM, which dilutes the ^3H-SAM to a level where its incorporation into the peptide substrate is no longer detectable. 50 ul of the reaction in the 384-well polypropylene plate was then transferred to a 384-well Flashplate and the biotinylated peptides were allowed to bind to the streptavidin surface for at least 1 hour before being washed once with 0.1% Tween20 in a Biotek EL×405 plate washer. The plates were then read in a PerkinElmer TopCount plate reader to measure the quantity of ^3H-labeled peptide bound to the Flashplate surface, measured as disintegrations per minute (dpm) or alternatively, referred to as counts per minute (cpm).
# Where dpm=disintegrations per minute, cmpd=signal in assay well, and min and max are the respective minimum and maximum signal controls. […]
# [1] = PRMT4 IC50, biochemical evaluation, CARM1 (PRMT4), peptide substrate
# [2] = PRMT4 biochemical evaluation (numerical), single experiment or average of multiple experiments
Compound,IC50 [1] [nM],IC50 [2] [nM]
CNCCN(C)Cc1n[nH]c2ccc(Oc3ccc(OC(C)C)cc3)cc12 [Compound 61],3010 to 10000,87.3
CCOc1ccc2[nH]nc(CN(C)CCNC)c2c1 [Compound 63],3010 to 10000,4160
CNCCN(C)Cc1n[nH]c2ccc(OC(C)C)cc12 [Compound 64],1010 to 3000,1960
CCCOc1ccc2[nH]nc(CN(C)CCNC)c2c1 [Compound 65],101 to 1000,4940
CNCCN(C)Cc1n[nH]c2ccc(OCc3cccc(C(N)=O)c3)cc12 [Compound 66],1010 to 3000,1910
CNCCN(C)Cc1n[nH]c2ccc(Oc3cccc(OC(C)C)c3)cc12 [Compound 67],3010 to 10000,683
CNCCN(C)Cc1n[nH]c2ccc(OCc3ccc(C(F)(F)F)cc3)cc12 [Compound 68],3010 to 10000,1700
CNCCN(C)Cc1n[nH]c2ccc(OCc3ccc(C(N)=O)cc3)cc12 [Compound 69],3010 to 10000,4160
CNCCN(C)Cc1n[nH]c2ccc(OCc3ccc(C(C)(C)C)cc3)cc12 [Compound 71],3010 to 10000,3790

# The remaining lines, values ahead:
IC50 [1] [nM],IC50 [2] [nM],Compound
1010 to 3000,364,CNCCN(C)Cc1nn(C(C)C)c2ccc(OCc3ccc(C#N)cc3)cc12 [Compound 62]
101 to 1000,3700,CNCCN(C)Cc1n[nH]c2ccc(OCc3cccc(NC(C)=O)c3)cc12 [Compound 70]
101 to 1000,892,CNCCN(C)Cc1n[nH]c2ccc(OCc3cccc(C(F)(F)F)c3)cc12 [Compound 72]
101 to 1000,4590,CNCCN(C)Cc1n[nH]c2ccc(OCc3cccc(C(C)=O)c3)cc12 [Compound 73]
101 to 1000,305,CNCCN(C)Cc1n[nH]c2ccc(OCc3cccc(C(C)(C)C)c3)cc12 [Compound 74]
